The values below come from patent publication US10421765B2, “Tetrahydropyrido[4,3-d]pyrimidine inhibitors of ATR kinase” (Board of Regents, The University of Texas System, priority 2017, dated 2019).

Where two headings read alike, the source gives them in different places.

The test system of assay [1] is ATR-driven phosphorylation of Chk1 kinase at Serine 345 in HT-29 colorectal adenocarcinoma cells. Description: pCHK1 cellular assay (CHK1 p-Ser345 AlphaScreen SureFire). The settings on record: Homo sapiens, HT-29, HT-29 cells, 4-nitroquinoline N-oxide 12 uM; read-out: Cell IC50 (pCHK1 IC50 values). Format: cell-based. The protocol:
Inhibitors of ATR kinase are effective at inhibiting the ATR-driven phosphorylation of the downstream target Chk1 kinase at Serine 345, following the addition of 4-nitroquinoline N-oxide, a chemical used to induce DNA damage. Cellular IC50 for the inhibitors of ATR described herein were measured in HT-29 colorectal adenocarcinoma cells. HT-29 cells were routinely maintained in McCoy's 5A media (ATCC Catalog #30-2007) supplemented with 10% fetal bovine serum (Sigma Catalog #F2442) and 1× Penicillin-Streptomycin (Gibco Catalog #15140-122) using a humidified incubator (37° C., 5% CO2, and ambient O2).
In preparation for the CHK1 (p-Ser345) ALPHASCREEN® SUREFIRE® assay, cells were harvested and resuspended in McCoy's 5A media supplemented with 10% fetal bovine serum and 1× Penicillin-Streptomycin. Cells were seeded onto a 384-well black CELLSTAR® Tissue Culture Plate (VWR Catalog #89085-314) at a density of 13,000 cells/well in a volume of 40 uL. The microplate was incubated overnight (approximately 20 hours) at 37° C. with 5% CO2 and ambient O2. Stock solutions of the test compounds were prepared in 100% DMSO (Sigma, Catalog #D2650) and serially diluted 1:3 using 100% DMSO. Compounds were additionally diluted 1:33 in culture medium, and 10 ul/well were transferred to the tissue culture plate. Following the compound addition the microplate was incubated at 37° C. for 90 minutes. 10 uL of 4-nitroquinoline N-oxide (Sigma Aldrich Catalog #N8141-1G) diluted in media (final concentration 12 uM) were added to the tissue culture plate followed by a 120 minute incubation at 37° C. The cells were then washed with PBS and lysed using 10 uL/well SUREFIRE® Kit lysis buffer diluted to 1× in water (PerkinElmer Catalog #TGRCHK1S50K), with mixing on an orbital shaker at 500 rpm for 20 min at RT. Lysates were frozen at −20° C. overnight.
4 uL/well of lysate was then transferred from the tissue culture plate to a 384-well, white, low volume, PROXIPLATE™ (PerkinElmer Catalog #600828). 5 uL/well of the acceptor bead solution, prepared by diluting SUREFIRE® Kit activation buffer (PerkinElmer Catalog #TGRCHK1S50K) and ALPHASCREEN® Protein A acceptor beads (PerkinElmer Catalog #6760617R) in SUREFIRE® Kit reaction buffer (PerkinElmer Catalog #TGRCHK1S50K), were added to the lysates under subdued light and incubated at room temperature for 120 min. 2 uL/well of the donor bead solution, prepared by diluting ALPHASCREEN® Streptavidin donor beads (PerkinElmer Catalog #6760617R) in SUREFIRE® Kit dilution buffer (PerkinElmer Catalog #TGRCHK1S50K), were added under subdued light and incubated at room temperature for an addition 120 minutes. The pCHK1 ALPHASCREEN® signal was measured using an ENVISION® plate reader (PerkinElmer). IC50 values were calculated using a four-parameter logistic curve fit using Genedata Screener software. Percent of control for each compound concentration was calculated by the following formula: 100*(Compound−Min)/(Max−Min) where “Max” is the high control, DMSO, and “Min” is the low control, 5 uM ATR inhibitor.

The next assay has as its target ATR/ATRIP complex (Homo sapiens (Human), UniProt Q13535). Description: ATR/ATRIP enzymatic assay (Caliper-based). In kind it is biochemical. The settings on record: FAM-labeled RAD17 peptide, ATP. The protocol:
Human full-length FLAG-TEV-ATR and His6-ATRIP were co-expressed in HEK293 cells. The cell pellet (20 g) was harvested and lysed in 100 mL of lysis buffer (20 mM Tris-HCl pH 7.5 at room temperature, 137 mM NaCl, 10% glycerol, 1 mM DTT, 1% (v/v) Tween-20, 0.1% (v/v) NP-40, complete protease inhibitor cocktail tablets, phosphatase inhibitor cocktail tablets, 2 mM MgCl2, 0.2 mM EDTA, and 1 mM ATP). After sonication and centrifugation, the supernatant was incubated at 4° C. for 3 hours with 1 mL of anti-FLAG resin (Sigma catalog #A2220) that had been pre-equilibrated in buffer A (20 mM Tris-HCl pH 7.5 at room temperature, 137 mM NaCl, 10% glycerol, 1 mM DTT, 2 mM MgCl2, and 0.2 mM EDTA). The sample was loaded into a column, and then washed with buffer A three times. Protein was subsequently eluted with 2 ml of buffer B (buffer A+200 μg/ml 3×FLAG peptide).
The ability of new chemical matter to inhibit the ATR catalytic activity in this ATR/ATRIP complex was assessed using a Caliper-based assay. A 2x enzyme solution (i.e., 4 nM enzyme) was prepared using 1× Kinase Reaction Buffer (25 mM HEPES pH 8, 0.0055% Brij-35, 10 mM MnCl2, and 1 mM DTT). A 2x peptide solution was then prepared consisting of 10 uM FAM-labeled RAD17 peptide (GL Biochem, catalog #524315) in 1× Kinase Reaction Buffer supplemented with 2 μM ATP. 10 μL of the 2× enzyme solution was transferred to an assay plate containing 60 nL of test compound (from a 3× serial dilution) in 100% DMSO. Following a 30 minute incubation at 28° C., 10 μL of the 2× peptide solution was then transferred to the same assay plate. The reaction was allowed to incubate at 28° C. for 6 hours. After adding […] of stop buffer (100 mM HEPES pH 7.5, 0.015% Brij-35, 0.2% Coating-3 Reagent (PerkinElmer, catalog #PN760050), and 50 mM EDTA), data were collected on a Caliper instrument. Conversion values were converted to inhibition values via the following equation: % inhibition=(max−conversion)/(max−min)*100, whereby “max” corresponds to the DMSO control and “min” corresponds to the low control. IC50 values were calculated using the following equation in XLFit: Y=Bottom+(Top−Bottom)/1+(IC50/X)^HillSlope).

Setting [2] is: read-out: ATR/ATRIP Enzyme IC50.
The mark [3] stands for this setting: estimated range, read-out: ATR/ATRIP Enzyme IC50 (estimated class).

Chain of ATR/ATRIP complex (Q13535 whole entry): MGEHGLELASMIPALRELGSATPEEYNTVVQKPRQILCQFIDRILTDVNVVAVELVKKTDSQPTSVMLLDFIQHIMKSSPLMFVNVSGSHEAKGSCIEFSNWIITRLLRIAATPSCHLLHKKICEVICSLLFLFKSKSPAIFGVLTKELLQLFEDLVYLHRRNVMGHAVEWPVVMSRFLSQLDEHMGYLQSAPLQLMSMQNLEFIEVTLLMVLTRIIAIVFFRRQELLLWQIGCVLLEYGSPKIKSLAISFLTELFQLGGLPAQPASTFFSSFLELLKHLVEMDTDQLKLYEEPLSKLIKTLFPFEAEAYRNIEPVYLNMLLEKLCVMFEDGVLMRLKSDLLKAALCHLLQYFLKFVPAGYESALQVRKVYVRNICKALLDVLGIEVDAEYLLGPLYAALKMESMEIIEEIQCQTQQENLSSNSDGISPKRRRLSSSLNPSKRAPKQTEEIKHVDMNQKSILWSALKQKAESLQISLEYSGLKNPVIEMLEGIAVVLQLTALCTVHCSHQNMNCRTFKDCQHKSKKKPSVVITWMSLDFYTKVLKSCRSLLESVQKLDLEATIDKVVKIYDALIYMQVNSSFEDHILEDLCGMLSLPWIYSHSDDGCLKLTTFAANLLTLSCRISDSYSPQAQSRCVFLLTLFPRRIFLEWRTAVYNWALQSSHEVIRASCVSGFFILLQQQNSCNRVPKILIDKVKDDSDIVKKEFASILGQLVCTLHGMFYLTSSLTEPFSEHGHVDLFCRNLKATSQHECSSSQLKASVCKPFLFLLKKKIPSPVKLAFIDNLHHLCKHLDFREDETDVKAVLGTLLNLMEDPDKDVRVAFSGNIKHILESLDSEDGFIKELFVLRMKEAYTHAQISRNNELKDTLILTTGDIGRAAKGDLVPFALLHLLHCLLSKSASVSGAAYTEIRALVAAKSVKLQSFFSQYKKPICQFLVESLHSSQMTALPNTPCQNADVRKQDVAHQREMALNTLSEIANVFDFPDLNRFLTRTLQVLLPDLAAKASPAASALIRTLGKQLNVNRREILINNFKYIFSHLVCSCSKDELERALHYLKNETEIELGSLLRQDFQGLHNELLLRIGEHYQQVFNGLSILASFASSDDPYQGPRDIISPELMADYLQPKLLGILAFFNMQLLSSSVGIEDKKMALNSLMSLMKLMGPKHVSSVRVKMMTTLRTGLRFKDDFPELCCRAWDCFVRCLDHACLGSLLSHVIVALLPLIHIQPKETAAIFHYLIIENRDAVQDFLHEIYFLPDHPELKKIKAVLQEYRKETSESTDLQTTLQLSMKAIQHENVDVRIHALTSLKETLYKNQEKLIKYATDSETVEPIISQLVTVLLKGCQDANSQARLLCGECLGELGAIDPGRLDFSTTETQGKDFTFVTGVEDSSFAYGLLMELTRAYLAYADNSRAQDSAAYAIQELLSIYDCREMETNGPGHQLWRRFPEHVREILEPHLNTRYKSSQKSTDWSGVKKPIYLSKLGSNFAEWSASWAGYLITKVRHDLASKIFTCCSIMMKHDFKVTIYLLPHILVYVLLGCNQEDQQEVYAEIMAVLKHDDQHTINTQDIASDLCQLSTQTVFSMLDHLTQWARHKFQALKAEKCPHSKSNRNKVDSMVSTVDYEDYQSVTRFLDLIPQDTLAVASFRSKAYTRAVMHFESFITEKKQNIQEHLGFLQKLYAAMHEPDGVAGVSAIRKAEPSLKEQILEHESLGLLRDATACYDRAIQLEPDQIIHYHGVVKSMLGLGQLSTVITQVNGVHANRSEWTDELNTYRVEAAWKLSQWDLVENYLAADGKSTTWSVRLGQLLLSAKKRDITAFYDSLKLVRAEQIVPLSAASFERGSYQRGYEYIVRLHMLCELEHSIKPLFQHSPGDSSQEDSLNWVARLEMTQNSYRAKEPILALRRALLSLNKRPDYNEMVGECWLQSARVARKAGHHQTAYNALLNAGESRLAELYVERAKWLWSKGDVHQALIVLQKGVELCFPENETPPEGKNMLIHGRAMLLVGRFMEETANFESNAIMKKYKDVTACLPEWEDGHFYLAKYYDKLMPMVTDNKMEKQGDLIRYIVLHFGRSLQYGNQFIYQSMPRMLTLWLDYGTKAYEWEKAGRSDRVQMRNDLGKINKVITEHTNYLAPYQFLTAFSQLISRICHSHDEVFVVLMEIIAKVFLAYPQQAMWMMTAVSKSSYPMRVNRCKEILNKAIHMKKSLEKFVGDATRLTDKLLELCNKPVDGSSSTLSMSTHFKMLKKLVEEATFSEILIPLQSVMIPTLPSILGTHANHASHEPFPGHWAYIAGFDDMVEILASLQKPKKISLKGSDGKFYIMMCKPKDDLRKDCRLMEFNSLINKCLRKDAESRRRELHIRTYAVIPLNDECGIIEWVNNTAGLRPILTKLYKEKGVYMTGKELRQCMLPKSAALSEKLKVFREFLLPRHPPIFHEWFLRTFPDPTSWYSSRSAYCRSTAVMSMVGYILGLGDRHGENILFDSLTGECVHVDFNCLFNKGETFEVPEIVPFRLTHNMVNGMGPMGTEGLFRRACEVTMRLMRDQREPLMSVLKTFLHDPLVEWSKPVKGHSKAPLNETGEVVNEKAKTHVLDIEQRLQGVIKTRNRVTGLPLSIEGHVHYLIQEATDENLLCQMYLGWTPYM
Chain of ATR/ATRIP complex (Q8WXE1 whole entry partner): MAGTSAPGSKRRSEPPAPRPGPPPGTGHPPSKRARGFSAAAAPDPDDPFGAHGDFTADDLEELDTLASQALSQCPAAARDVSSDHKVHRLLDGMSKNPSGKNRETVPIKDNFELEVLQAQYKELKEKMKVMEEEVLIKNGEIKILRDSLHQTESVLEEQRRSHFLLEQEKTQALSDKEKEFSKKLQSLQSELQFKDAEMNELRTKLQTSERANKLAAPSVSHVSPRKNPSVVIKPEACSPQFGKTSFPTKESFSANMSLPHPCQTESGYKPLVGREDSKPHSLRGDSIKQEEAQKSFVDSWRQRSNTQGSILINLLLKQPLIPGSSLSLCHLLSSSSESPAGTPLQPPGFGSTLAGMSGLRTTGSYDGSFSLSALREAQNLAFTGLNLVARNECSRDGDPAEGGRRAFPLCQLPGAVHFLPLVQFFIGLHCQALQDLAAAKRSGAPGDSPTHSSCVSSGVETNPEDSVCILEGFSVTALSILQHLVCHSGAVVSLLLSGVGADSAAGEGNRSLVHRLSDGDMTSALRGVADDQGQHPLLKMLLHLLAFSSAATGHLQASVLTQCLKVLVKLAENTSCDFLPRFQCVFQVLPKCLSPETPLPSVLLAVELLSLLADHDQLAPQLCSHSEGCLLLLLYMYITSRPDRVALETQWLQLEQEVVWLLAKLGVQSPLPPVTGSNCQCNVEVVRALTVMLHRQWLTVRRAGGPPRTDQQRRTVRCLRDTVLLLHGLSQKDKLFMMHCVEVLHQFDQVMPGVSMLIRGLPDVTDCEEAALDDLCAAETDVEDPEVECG

Consider `C[C@@H]1Cc2ncnc(C3CCN(S(C)(=O)=O)CC3)c2CN1c1cc(OCC(F)(F)F)nc2[nH]ccc12` [Example 96, (R)-7-methyl-4-(1-(methylsulfonyl)piperidin-4-yl)-6-(6-(2,2,2-tri-fluoroethoxy)-1H-pyrrolo[2,3-b]pyridin-4-yl)-5,6,7,8-tetrahydro-pyrido[4,3-d]pyrimidine], for which the IC50 stood at 0.022 µM in assay [1] and 0.321 µM on ATR/ATRIP complex (setting [2]).
The like results for `C[C@@H]1Cc2ncnc(C3CCC(NS(C)(=O)=O)CC3)c2CN1c1cc(Cl)nc2[nH]ccc12` (stereo partly drawn) [Example 40, (R)-N-(4-(6-(6-chloro-1H-pyrrolo[2,3-b]pyridin-4-yl)-7-methyl-5,6,7,8-tetrahydropyrido[4,3-d]pyrimidin-4-yl)cyclohexyl)methane-sulfonamide] were, in that order, 0.024 µM and 0.899 µM.
The like results for `CC1Cc2ncnc(-c3ccc(S(C)(=O)=O)cc3)c2CN1c1ccnc2[nH]ccc12` (stereo not drawn) [Example 3, 7-Methyl-4-(4-(methylsulfonyl)phenyl)-6-(1H-pyrrolo[2,3-b]pyridin-4-yl)-5,6,7,8-tetrahydropyrido[4,3-d]pyrimidine bis(trifluoroacetate)] were, in that order, 0.183 µM and 1.97 µM.
The like results for `C[C@@H]1Cc2ncnc(N3CCC[C@@H](C(C)(C)O)C3)c2CN1c1cc(Cl)nc2[nH]ccc12` [Example 70, 2-((R)-1-((R)-6-(6-chloro-1H-pyrrolo[2,3-b]-pyridin-4-yl)-7-methyl-5,6,7,8-tetrahydropyrido-[4,3-d]pyrimidin-4-yl)-piperidin-3-yl)propan-2-ol] were, in that order, 0.01 µM and 0.087 µM.
For `C[C@@H]1Cc2ncnc(N3CC(O)C3)c2CN1c1cc(Cl)nc2[nH]ccc12` [Example 77, (R)-1-(6-(6-chloro-1H-pyrrolo[2,3-b]pyridin-4-yl)-7-methyl-5,6,7,8-tetrahydropyrido[4,3-d]-pyrimidin-4-yl)azetidin-3-ol], the figures for the IC50 (in assay [1]; on ATR/ATRIP complex (setting [2])) were 0.021 µM and 0.32 µM, respectively.
The like results for `C[C@@H]1Cc2ncnc(N3CCC(NS(C)(=O)=O)CC3)c2CN1c1ccnc2[nH]ccc12` [Example 64, (R)-N-(1-(7-methyl-6-(1H-pyrrolo[2,3-b]-pyridin-4-yl)-5,6,7,8-tetrahydropyrido[4,3-d]-pyrimidin-4-yl)piperidin-4-yl)methanesulfonamide] were, in that order, 0.016 µM and 0.472 µM.
The like results for `C[C@@H]1Cc2ncnc(N3CCC(O)(C4CC4)CC3)c2CN1c1cc(Cl)nc2[nH]ccc12` [Example 75, (R)-1-(6-(6-chloro-1H-pyrrolo[2,3-b]pyridin-4-yl)-7-methyl-5,6,7,8-tetrahydropyrido[4,3-d]pyrimidin-4-yl)-4-cyclopropylpiperidin-4-ol] were, in that order, 0.034 µM and 0.246 µM.
The like results for `C[C@@H]1Cc2ncnc(N3CC(C#N)C3)c2CN1c1cc(Cl)nc2[nH]ccc12` [Example 79, (R)-1-(6-(6-chloro-1H-pyrrolo[2,3-b]pyridin-4-yl)-7-methyl-5,6,7,8-tetrahydropyrido[4,3-d]-pyrimidin-4-yl)azetidine-3-carbonitrile] were, in that order, 0.014 µM and 0.103 µM.
Take `C[C@@H]1Cc2ncnc(N3CCC(C#N)CC3)c2CN1c1ccnc2[nH]ccc12` [Example 82, (R)-1-(7-methyl-6-(1H-pyrrolo[2,3-b]pyridin-4-yl)-5,6,7,8-tetrahydro-pyrido[4,3-d]pyrimidin-4-yl)piperidine-4-carbonitrile]: the IC50 in assay [1] turned out to be 0.079 µM; on ATR/ATRIP complex (setting [2]), 0.796 µM.
In the case of `CCOc1cc(N2Cc3c(ncnc3C3CCN(S(C)(=O)=O)CC3)C[C@H]2CF)c2cc[nH]c2n1` [Example 55b, (S)-6-(6-ethoxy-1H-pyrrolo[2,3-b]pyridin-4-yl)-7-(fluoromethyl)-4-(1-(methylsulfonyl)piperidin-4-yl)-5,6,7,8-tetrahydropyrido[4,3-d]pyrimidine], the IC50 came to 0.03 µM in assay [1] and 0.311 µM on ATR/ATRIP complex (setting [2]).
The like results for `C[C@@H]1Cc2ncnc(N3CCC(S(C)(=O)=O)CC3)c2CN1c1ccnc2[nH]ccc12` [Example 8, (R)-7-Methyl-4-(4-(methylsulfonyl)piperidin-1-yl)-6-(1H-pyrrolo[2,3-b]pyridin-4-yl)-5,6,7,8-tetrahydropyrido[4,3-d]pyrimidine bis(trifluoroacetate)] were, in that order, 0.127 µM and 0.979 µM.
As to `C[C@@H]1Cc2ncnc(N3CCN(S(C)(=O)=O)CC3)c2CN1c1cc(Cl)nc2[nH]ccc12` [Example 20, 1-[(7R)-6-{6-chloro-1H-pyrrolo[2,3-b]pyridin-4-yl}-7-methyl-5H,6H,7H,8H-pyrido[4,3-d]pyrimidin-4-yl]-4-methanesulfonyl-piperazine], the IC50 was 0.097 µM in assay [1] and 1 to 10 µM on ATR/ATRIP complex (setting [3]).
As to `C[C@@H]1Cc2ncnc(C3CCN(C(=O)C(C)(C)O)CC3)c2CN1c1ccnc2[nH]ccc12` [Example 49, (R)-2-Hydroxy-2-methyl-1-(4-(7-methyl-6-(1H-pyrrolo[2,3-b]pyridin-4-yl)-5,6,7,8-tetrahydropyrido[4,3-d]pyrimidin-4-yl)piperidin-1-yl)propan-1-one], the values for the IC50 (in assay [1]; on ATR/ATRIP complex (setting [2])) were 0.654 µM and 3.6 µM, respectively.
Turning to `C[C@@H]1Cc2ncnc(N3CCN(S(C)(=O)=O)C(C)(C)C3)c2CN1c1cc(Cl)nc2[nH]ccc12` [Example 21, 4-[(7R)-6-{6-chloro-1H-pyrrolo[2,3-b]pyridin-4-yl}-7-methyl-5H,6H,7H,8H-pyrido[4,3-d]pyrimidin-4-yl]-1-methanesulfonyl-2,2-dimethylpiperazine], the values for the IC50 (in assay [1]; at ATR/ATRIP complex (setting [3])) were 0.057 µM and 1 to 10 µM, respectively.
Consider `C[C@@H]1Cc2ncnc(N3CC(S(C)(=O)=O)C3)c2CN1c1cc(Cl)nc2[nH]ccc12` [Example 32, 1-[(7R)-6-{6-chloro-1H-pyrrolo[2,3-b]pyridin-4-yl}-7-methyl-5H,6H,7H,8H-pyrido[4,3-d]pyrimidin-4-yl]-3-methanesulfonylazetidine], for which the IC50 in assay [1] was 0.021 µM; at ATR/ATRIP complex (setting [2]) it was 0.223 µM.
